The test deals with T1, LATS1 Kinase-NanoLuc fusion in HEK-293 cells (Homo sapiens, UniProt O95835).
T1 construct: host or cells: HEK-293
T1 sequence (O95835 1-1130): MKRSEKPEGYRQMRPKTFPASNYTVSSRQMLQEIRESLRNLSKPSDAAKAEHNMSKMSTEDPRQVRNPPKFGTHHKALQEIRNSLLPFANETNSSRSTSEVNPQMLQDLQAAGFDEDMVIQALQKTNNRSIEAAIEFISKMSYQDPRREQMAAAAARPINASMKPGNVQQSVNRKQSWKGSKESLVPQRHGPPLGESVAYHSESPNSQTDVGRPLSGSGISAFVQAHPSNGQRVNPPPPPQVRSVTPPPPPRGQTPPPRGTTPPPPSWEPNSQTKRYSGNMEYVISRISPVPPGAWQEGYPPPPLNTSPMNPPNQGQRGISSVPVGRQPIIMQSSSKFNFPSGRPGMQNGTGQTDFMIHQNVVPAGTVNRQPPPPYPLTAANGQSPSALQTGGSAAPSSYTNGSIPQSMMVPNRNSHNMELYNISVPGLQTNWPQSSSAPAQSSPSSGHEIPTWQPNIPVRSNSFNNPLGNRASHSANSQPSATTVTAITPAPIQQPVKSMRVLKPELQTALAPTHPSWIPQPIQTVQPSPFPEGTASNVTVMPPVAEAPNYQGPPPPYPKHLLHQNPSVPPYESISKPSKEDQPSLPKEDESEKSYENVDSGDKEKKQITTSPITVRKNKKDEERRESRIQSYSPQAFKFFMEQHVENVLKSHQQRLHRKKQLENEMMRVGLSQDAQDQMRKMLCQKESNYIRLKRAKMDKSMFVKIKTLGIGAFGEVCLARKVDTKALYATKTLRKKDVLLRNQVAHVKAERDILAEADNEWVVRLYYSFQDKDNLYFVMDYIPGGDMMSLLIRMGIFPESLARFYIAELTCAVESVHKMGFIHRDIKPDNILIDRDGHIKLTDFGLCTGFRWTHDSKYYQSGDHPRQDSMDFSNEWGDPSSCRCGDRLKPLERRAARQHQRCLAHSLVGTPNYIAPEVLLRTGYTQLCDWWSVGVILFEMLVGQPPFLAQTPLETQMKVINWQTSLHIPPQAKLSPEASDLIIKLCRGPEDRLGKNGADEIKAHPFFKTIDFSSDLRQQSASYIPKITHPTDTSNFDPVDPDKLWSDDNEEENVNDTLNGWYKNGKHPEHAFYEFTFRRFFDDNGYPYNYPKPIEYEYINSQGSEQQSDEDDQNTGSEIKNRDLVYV
Kind of test: NanoBRET target engagement assay in transfected HEK-293 cells, LATS1. Format: cell-based. The note with it: Table 28, NanoBRET, HEK-293 cells; read-out: LATS1 (Cellular) IC50. From the text:
The NanoBRET™ assay measures kinase engagement in real time in the context of the intact cell. The assay uses a Kinase-NanoLuc® fusion vector expressing a kinase protein to which a luciferase tag has been added, a cell-permeant fluorescent NanoBRET™ tracer, a NanoLuc® substrate, and an extracellular NanoLuc® inhibitor. Upon expression of the luciferase-tagged kinase, cells will produce a strong BRET signal only in the presence of the NanoBRET™ tracer. The extracellular NanoLuc® inhibitor ensures that the BRET signal observed emanates only from live cells. Because the BRET signal has tight distance constraints, addition of the test compound will decrease the BRET signal if the compound competes with the NanoBRET™ tracer for binding to the kinase domain. Under the appropriate tracer conditions established by the manufacturer, quantitative intracellular affinity and relative potency can then be determined using Mass Action model equations.
HEK-293 cells were purchased from ATCC. FuGENEHD Transfection Reagent, Kinase-NanoLuc® fusion plasmids, Transfection Carrier DNA, NanoBRET™ Tracers and dilution buffer, NanoBRET™ Nano-Glo Substrate, Extracellular NanoLuc® Inhibitor were obtained from Promega.
Assays were conducted following Promega assay protocol with some modifications as described further below. HEK-293 Cells were transiently transfected with Kinase-NanoLuc® Fusion Vector DNA by FuGENE HD Transfection Reagent. Test compounds were delivered into 384 well assay plate by Echo 550 (Labcyte Inc, Sunnyvale, CA). Transfected cells were harvested and mixed with NanoBRET™ Tracer Reagent and dispensed into 384 well plates and incubated at 37° C. in 5% CO2 cell culture incubator for 1 hour. The NanoBRET™ Nano-Glo Substrate plus Extracellular NanoLuc® Inhibitor Solution were added into the wells of the assay plate and incubated for 2-3 minutes at room temperature. The donor emission wavelength (460 nm) and acceptor emission wavelength (600 nm) were measured in the EnVision plate reader. The BRET Ratios were calculated. BRET Ratio=[(Acceptor sample÷Donor sample)−(Acceptor no-tracer control÷Donor no-tracer control)]. The IC50 values of compounds were calculated with Prism GraphPad program.
• 1. Transient Transfection of HEK-293 Cells NanoLuc® Fusion Vector DNA • 1). Cultivate HEK-293 cells (70-80% confluence) appropriately prior to assay. Trypsinize and collect HEK-293 cells. • 2). Prepare lipid: DNA complexes as follows: • a. Prepare a […] solution of DNA in Opti-MEM™ without serum that consists of the following ratios of carrier DNA and DNA encoding NanoLuc® fusion. 9.0 µg/mL of Transfection Carrier DNA, […] of NanoLuc® fusion vector DNA and 1 mL of Opti-MEM™ without phenol red. Mix thoroughly. • b. Add 30 μl of FuGENE HD Transfection Reagent into each milliliter of DNA mixture to form lipid: DNA complex. • c. Mix by inversion 10 times. • d. Incubate at ambient temperature for 20 minutes to allow complexes to form. • 3). In a sterile, conical tube, mix 1 part of lipid: DNA complex with 20 parts of HEK-293 cells in suspension. Mix gently by inversion 5 times. • 4). Dispense cells+lipid: DNA complex into a sterile tissue culture dish and incubate for 22-24 hours. • 2. Addition of Test Compounds (dry plate shooting): Each test compound is delivered from the compound source plate to the wells of 384-well white NBS plate by Echo 550. • 3. Preparation of Cells with NanoBRET™ Tracer Reagent • 1). Remove medium from dish with transfected HEK-293 cells via aspiration, trypsinize and allow cells to dissociate from the dish. • 2). Neutralize trypsin using medium containing serum and centrifuge at 200× g for 5 minutes to pellet the cells. Adjust the cell density to 2×10^5 cells/mL in Opti-MEM™ without phenol red. • 3). Prepare Complete 20× NanoBRET™ Tracer Reagent with Tracer Dilution Buffer. • 4). Dispense one part of Complete 20× NanoBRET™ Tracer Reagent to 20 parts of cells in the tube. Mix gently by inversion 10 times. • 5). […]

We go through 18 compounds from US20250361230A1, “LATS Inhibitors and Uses Thereof” (The USA, as Represented by the Secretary, Dept. of Heath …, priority 2022, published 2025).

In the case of `C[C@@H]1CNC[C@H](C)[C@@]1(O)c1ccc(-c2ccnc3[nH]cc(F)c23)cc1Cl` [Compound 1, (3S,4S,5R)-4-(2-chloro-4-(3-fluoro-1H-pyrrolo[2,3-b]pyridin-4-yl)phenyl)-3,5-dimethylpiperidin-4-ol], the IC50 was determined as 203 nM.
As to `C[C@@H]1CNC[C@H](C)[C@@]1(O)c1ccc(-c2ccnc3[nH]cc(F)c23)cc1` [Compound 2, (3R,4s,5S)-4-(4-(3-fluoro-1H-pyrrolo[2,3-b]pyridin-4-yl)phenyl)-3,5-dimethylpiperidin-4-ol], the IC50 was found to be 550 nM.
As to `C[C@@H]1CNC[C@H](C)[C@@]1(O)c1ccc(-c2ccnc3[nH]cc(F)c23)cc1F` [Compound 7, (3S,4s,5R)-4-(2-fluoro-4-(3-fluoro-1H-pyrrolo[2,3-b]pyridin-4-yl)phenyl)-3,5-dimethyl piperidin-4-ol], the IC50 was 247 nM.
The value for `C[C@@H]1CNC[C@H](C)[C@@]1(O)c1ccc(-c2ccnc3[nH]cc(F)c23)nc1` [Compound 8, (3S,4s,5R)-4-(6-(3-fluoro-1H-pyrrolo[2,3-b]pyridin-4-yl)pyridin-3-yl)-3,5-dimethylpiperidin-4-ol] was 60 nM; that for `Cc1cc(-c2ccnc3[nH]cc(F)c23)ccc1[C@@]1(O)[C@H](C)CNC[C@@H]1C` [Compound 9, (3S,4s,5R)-4-(4-(3-fluoro-1H-pyrrolo[2,3-b]pyridin-4-yl)-2-methylphenyl)-3,5-dimethylpiperidin-4-ol] was 44.6 nM; that for `C[C@@H]1CNC[C@H](C)[C@@]1(O)c1c(F)cc(-c2ccnc3[nH]cc(F)c23)cc1F` [Compound 13] was 1450 nM.
Take `C[C@@H]1CNC[C@H](C)[C@@]1(O)c1ccc(-c2ccnc3[nH]cc(F)c23)cc1OC(F)(F)F` [Compound 14, (3S,4s,5R)-4-(4-(3-fluoro-1H-pyrrolo[2,3-b]pyridin-4-yl)-2-(trifluoromethoxy)phenyl)-3,5-dimethylpiperidin-4-ol]: the IC50 stood at 2130 nM.
With `C[C@@H]1CN(Cc2ccccn2)C[C@H](C)[C@@]1(O)c1c(F)cc(-c2ccnc3[nH]cc(F)c23)cc1F` [Compound 17, (3S,4s,5R)-4-(2,6-difluoro-4-(3-fluoro-1H-pyrrolo[2,3-b]pyridin-4-yl)phenyl)-3,5-dimethyl-1-(pyridin-2-ylmethyl)piperidin-4-ol], the IC50 is 409 nM.
With `C[C@@H]1CN(C)C[C@H](C)[C@@]1(O)c1cnc(-c2ccnc3[nH]cc(F)c23)cc1Cl` [Compound 22, (3S,4s,5R)-4-(4-chloro-6-(3-fluoro-1H-pyrrolo[2,3-b]pyridin-4-yl)pyridin-3-yl)-1,3,5-trimethylpiperidin-4-ol] the figure was 505 nM; with `Cc1cc(-c2ccnc3[nH]cc(F)c23)ccc1[C@@]1(O)[C@H](C)CN(C2COC2)C[C@@H]1C` [Compound 24, (3S,4s,5R)-4-(4-(3-fluoro-1H-pyrrolo[2,3-b]pyridin-4-yl)-2-methylphenyl)-3,5-dimethyl-1-(oxetan-3-yl)piperidin-4-ol], 127 nM; with `Cc1cc(-c2ccnc3[nH]cc(F)c23)ccc1[C@@]1(O)[C@H](C)CN(C(C)C)C[C@@H]1C` [Compound 29, (3S,4s, 5R)-4-(4-(3-fluoro-1H-pyrrolo[2,3-b]pyridin-4-yl)-2-methylphenyl)-1-isopropyl-3,5-dimethylpiperidin-4-ol], 86 nM.
Take `Cc1cc(-c2ccnc3[nH]cc(F)c23)cc(F)c1C1(O)[C@H](C)CN(C2COC2)C[C@@H]1C` (stereo partly drawn) [Compound 30, (3S,5R)-4-(2-fluoro-4-(3-fluoro-1H-pyrrolo[2,3-b]pyridin-4-yl)-6-methylphenyl)-3,5-dimethyl-1-(oxetan-3-yl)piperidin-4-ol]: the IC50 was 58.2 nM.
Regarding `C[C@@H]1CN(C2CCS(=O)(=O)CC2)C[C@H](C)C1(O)c1c(F)cc(-c2ccnc3[nH]cc(F)c23)cc1F` (stereo partly drawn) [Compound 31, 4-((3S,5R)-4-(2,6-difluoro-4-(3-fluoro-1H-pyrrolo[2,3-b]pyridin-4-yl)phenyl)-4-hydroxy-3,5-dimethylpiperidin-1-yl)tetrahydro-2H-thiopyran 1,1-dioxide], the IC50 turned out to be 1190 nM.
Turning to `C[C@@H]1CN(C)C[C@H](C)[C@@]1(O)c1ccc(-c2ccnc3[nH]cc(F)c23)cc1` [Compound 39, (3R,4s,5S)-4-(4-(3-fluoro-1H-pyrrolo[2,3-b]pyridin-4-yl)phenyl)-1,3,5-trimethylpiperidin-4-ol], the IC50 was determined as 19000 nM.
With `C[C@@H]1CN(C)C[C@H](C)[C@@]1(O)c1ccc(-c2ccnc3[nH]cc(F)c23)nc1` [Compound 41, (3R,4s,5S)-4-(6-(3-fluoro-1H-pyrrolo[2,3-b]pyridin-4-yl)pyridin-3-yl)-1,3,5-trimethylpiperidin-4-ol], the IC50 was found to be 115 nM.
For the compound `C[C@@H]1CN(C2COC2)C[C@H](C)[C@@]1(O)c1c(F)cc(-c2ccnc3[nH]cc(F)c23)cc1F` [Compound 45, (3S,4s,5R)-4-(2,6-difluoro-4-(3-fluoro-1H-pyrrolo[2,3-b]pyridin-4-yl)phenyl)-3, S-dimethyl-1-(oxetan-3-yl)piperidin-4-ol], the IC50 was 813 nM.
For `C[C@@H]1CN(C2CCC2)C[C@H](C)[C@@]1(O)c1c(F)cc(-c2ccnc3[nH]cc(F)c23)cc1F` [Compound 46, (3R,4s,5S)-1-cyclobutyl-4-(2,6-difluoro-4-(3-fluoro-1H-pyrrolo[2,3-b]pyridin-4-yl)phenyl)-3,5-dimethylpiperidin-4-ol], the IC50 was 462 nM.
As to `Cc1cc(-c2ccnc3[nH]cc(F)c23)ncc1[C@@]1(O)[C@H](C)CN(C2CCC2)C[C@@H]1C` [Compound 48, (3R,4s,5S)-1-cyclobutyl-4-(6-(3-fluoro-1H-pyrrolo[2,3-b]pyridin-4-yl)-4-methylpyridin-3-yl)-3,5-dimethylpiperidin-4-ol], the IC50 was 12600 nM.
